Source: ChEMBL document CHEMBL5729354, “Substituted pyrrolo[2,3-d]pyrimidines as JAK inhibitors” (2022)

Tests used:
[1] = target: Non-receptor tyrosine-protein kinase TYK2 (Homo sapiens, UniProt P29597); experiment: (§1) JAK/TYK2 Assay: 10 mM test compound stock or 1 mM control compound stock (tofocitinib, ruxolitinib or staurosporine) in DMSO was diluted to 0.4 mM in DMSO. A 3-fold series dilution was then performed in DMSO to generate 10 different compound concentrations. The assay was carried out in 384-well white plate. 0.5 uL of 40× compound DMSO solution at different concentrations was mixed with 10 uL 2× enzyme prepared in reaction buffer (20 mM HEPES, 10 mM MgCl2, 0.01% Tween, 1 mM DTT, pH 7.5). 10 uL 2× substrate mixture prepared in reaction buffer was then added to start the reaction. A short spin was done to settle down all solutions to the bottom of the plate. Final concentrations of test compound in the reaction mixture were 10000, 3333, 1111, 370, 123, 41.2, 13.7, 4.57, 1.52 and 0.51 nM. Concentrations of control compound were ten times less. Enzymatic reaction was conducted at 25° C. for 1-2 hours. 10 uL of Kinase Glo Reagents was added to stop the reaction and generate the luminescent signal which was measured using Envision. Luminescence signal was inversely related to kinase activity. […] The mixture without any compound was the positive control. [ATP] [sub] timeJAK1 7.5 nM 2 uM 30 uM (IRS-1) 1 hrJAK2 0.8 nM 2 uM 4 uM (pEY) 1 hrJAK3 1.5 nM 2 uM 4 uM (pEY) 1 hrTYK2 9 nM 2 uM 30 uM (IRS-1) 1 hr
[2] = target: T1, Tyrosine-protein kinase JAK3 (Homo sapiens, UniProt P52333); experiment: as §1
T1 sequence (P52333 whole entry): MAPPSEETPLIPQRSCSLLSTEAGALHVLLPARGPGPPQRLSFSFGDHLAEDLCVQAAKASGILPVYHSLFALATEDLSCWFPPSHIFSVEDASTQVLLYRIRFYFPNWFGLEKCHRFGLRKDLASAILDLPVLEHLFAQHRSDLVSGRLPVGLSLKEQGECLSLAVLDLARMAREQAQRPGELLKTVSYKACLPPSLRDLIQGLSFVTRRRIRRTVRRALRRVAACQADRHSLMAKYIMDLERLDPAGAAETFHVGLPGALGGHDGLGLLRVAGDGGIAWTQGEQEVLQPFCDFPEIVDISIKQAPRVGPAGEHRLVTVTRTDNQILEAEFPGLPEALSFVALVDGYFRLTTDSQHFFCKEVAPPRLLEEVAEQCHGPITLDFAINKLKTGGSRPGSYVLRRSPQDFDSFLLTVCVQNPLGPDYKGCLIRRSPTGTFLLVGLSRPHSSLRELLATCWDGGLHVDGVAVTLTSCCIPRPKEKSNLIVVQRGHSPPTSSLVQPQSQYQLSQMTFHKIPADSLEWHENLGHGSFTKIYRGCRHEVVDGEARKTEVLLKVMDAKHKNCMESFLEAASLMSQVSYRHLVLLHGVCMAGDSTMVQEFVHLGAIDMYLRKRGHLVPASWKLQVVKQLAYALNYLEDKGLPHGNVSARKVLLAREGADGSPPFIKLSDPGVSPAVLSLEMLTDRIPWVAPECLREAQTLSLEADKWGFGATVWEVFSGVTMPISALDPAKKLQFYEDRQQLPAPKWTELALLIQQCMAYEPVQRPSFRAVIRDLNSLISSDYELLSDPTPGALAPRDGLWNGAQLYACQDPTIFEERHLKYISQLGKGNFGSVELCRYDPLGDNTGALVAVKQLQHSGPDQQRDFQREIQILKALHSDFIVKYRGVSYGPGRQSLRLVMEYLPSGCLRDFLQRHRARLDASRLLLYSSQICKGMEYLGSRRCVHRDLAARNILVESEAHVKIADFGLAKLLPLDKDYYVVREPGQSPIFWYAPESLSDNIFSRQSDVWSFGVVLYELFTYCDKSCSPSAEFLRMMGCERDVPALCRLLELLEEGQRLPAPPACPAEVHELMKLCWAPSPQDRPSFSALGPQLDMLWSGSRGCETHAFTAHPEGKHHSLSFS

[3] = target: Tyrosine-protein kinase JAK2 (Homo sapiens, UniProt O60674); experiment: as §1
[4] = target: Tyrosine-protein kinase JAK1 (Homo sapiens, UniProt P23458); experiment: as §1
Tyrosine-protein kinase JAK1, sequence (P23458 whole entry): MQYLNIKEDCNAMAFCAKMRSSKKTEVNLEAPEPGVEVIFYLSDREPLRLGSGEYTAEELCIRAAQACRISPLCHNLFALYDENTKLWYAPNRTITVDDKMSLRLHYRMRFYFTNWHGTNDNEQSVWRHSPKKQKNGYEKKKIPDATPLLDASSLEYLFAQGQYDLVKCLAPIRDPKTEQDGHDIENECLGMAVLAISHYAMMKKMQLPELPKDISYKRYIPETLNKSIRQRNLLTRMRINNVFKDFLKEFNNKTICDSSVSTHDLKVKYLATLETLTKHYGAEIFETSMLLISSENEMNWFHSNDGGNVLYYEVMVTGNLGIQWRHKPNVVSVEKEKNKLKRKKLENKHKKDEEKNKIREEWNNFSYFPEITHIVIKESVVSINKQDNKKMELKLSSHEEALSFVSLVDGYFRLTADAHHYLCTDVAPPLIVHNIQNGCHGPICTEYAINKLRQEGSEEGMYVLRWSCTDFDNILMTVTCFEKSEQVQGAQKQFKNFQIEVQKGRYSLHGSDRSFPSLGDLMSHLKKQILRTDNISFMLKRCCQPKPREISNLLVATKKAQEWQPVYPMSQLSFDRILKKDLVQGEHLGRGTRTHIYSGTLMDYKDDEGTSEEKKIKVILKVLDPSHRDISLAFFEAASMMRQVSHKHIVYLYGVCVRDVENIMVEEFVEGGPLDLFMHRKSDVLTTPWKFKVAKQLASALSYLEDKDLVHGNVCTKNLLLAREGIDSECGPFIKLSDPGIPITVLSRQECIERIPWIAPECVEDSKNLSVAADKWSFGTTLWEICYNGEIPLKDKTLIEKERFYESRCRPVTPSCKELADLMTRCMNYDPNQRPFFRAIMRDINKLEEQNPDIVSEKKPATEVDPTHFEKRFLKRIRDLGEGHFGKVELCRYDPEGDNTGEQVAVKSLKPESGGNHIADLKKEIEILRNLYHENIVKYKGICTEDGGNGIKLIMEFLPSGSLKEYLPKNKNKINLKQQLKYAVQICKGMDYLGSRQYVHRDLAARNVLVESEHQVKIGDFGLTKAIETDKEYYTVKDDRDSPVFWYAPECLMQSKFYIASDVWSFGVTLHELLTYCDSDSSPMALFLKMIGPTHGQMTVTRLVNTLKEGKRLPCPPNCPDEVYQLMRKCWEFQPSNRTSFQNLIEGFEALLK

Tyrosine-protein kinase JAK2, sequence (O60674 whole entry): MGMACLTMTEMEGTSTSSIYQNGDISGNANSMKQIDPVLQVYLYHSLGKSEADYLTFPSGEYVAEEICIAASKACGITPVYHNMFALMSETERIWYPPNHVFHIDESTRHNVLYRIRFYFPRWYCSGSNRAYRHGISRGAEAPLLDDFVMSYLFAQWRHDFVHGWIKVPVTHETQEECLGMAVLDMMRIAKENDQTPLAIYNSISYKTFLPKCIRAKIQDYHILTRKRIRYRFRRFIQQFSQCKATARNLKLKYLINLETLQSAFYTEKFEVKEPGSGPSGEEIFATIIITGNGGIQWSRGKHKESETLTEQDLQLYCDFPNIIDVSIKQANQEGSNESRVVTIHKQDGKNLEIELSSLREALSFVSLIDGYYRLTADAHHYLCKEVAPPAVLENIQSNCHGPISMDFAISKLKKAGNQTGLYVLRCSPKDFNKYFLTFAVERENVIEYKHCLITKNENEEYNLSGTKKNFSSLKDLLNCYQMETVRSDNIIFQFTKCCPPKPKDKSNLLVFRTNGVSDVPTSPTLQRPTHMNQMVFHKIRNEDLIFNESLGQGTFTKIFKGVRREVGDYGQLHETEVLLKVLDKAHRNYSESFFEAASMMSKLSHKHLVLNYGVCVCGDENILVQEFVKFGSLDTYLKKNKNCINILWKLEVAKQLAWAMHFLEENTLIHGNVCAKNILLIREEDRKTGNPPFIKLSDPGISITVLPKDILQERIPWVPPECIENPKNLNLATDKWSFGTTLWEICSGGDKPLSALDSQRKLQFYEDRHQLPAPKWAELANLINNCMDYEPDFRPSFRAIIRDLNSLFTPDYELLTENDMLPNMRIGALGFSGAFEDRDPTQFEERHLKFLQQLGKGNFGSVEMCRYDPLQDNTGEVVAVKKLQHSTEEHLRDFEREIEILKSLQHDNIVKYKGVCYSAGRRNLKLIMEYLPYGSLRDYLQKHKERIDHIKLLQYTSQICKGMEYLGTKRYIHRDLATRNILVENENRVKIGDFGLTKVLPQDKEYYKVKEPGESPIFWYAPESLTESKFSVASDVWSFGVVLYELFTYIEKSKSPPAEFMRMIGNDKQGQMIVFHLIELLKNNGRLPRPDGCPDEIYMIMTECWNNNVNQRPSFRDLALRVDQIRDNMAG
Non-receptor tyrosine-protein kinase TYK2, sequence (P29597 whole entry): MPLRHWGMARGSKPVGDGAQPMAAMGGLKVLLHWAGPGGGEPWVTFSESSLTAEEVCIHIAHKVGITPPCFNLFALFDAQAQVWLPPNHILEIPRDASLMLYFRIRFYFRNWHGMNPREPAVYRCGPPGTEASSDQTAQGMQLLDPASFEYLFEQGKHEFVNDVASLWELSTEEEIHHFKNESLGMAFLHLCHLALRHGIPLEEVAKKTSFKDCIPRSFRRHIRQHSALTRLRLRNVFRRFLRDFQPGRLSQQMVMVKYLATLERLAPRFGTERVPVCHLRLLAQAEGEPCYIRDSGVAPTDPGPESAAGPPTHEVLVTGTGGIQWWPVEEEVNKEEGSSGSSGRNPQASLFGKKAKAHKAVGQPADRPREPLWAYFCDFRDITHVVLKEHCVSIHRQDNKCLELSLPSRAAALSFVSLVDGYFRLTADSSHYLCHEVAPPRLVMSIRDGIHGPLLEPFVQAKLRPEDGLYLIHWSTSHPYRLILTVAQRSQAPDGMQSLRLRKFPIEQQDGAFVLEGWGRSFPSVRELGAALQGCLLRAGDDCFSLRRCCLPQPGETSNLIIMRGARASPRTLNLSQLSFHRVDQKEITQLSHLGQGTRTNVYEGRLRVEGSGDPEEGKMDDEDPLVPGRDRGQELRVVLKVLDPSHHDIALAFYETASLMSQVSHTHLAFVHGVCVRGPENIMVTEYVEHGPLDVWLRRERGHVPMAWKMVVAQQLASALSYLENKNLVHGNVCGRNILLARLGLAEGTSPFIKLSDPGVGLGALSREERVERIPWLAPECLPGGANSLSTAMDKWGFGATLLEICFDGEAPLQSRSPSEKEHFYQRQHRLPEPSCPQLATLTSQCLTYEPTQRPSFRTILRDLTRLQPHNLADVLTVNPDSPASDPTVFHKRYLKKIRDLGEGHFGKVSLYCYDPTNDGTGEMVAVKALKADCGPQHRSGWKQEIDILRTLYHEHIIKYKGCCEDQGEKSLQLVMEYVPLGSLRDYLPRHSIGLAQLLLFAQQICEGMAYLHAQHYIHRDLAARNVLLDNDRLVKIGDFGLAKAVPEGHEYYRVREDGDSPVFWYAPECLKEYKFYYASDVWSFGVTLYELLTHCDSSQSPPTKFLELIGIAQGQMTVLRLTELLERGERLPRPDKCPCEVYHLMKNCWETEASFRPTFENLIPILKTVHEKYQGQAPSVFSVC

- IC50 [1]: < 100 nM
- IC50 [2]: < 100 nM
- IC50 [3]: < 100 nM
- IC50 [4]: < 100 nM
Compound: CCC(CC)Cn1ccc2cnc(Nc3cnn(CC(=O)O[C@@H]4C[C@@H](C(=O)OC)N(C)C4)c3)nc21
